From patent US20210046124A1, “HUMAN FUNCTIONAL CORNEAL ENDOTHELIAL CELL AND APPLICATION THEREOF” (KYOTO PREFECTURAL PUBLIC UNIVERSITY CORPORATION, priority 2016, published 2021)
Several values for one entry are separate records, joined by “and”; a condition that tells them apart may be missing. Equal entries are not always repeated. Entries after “also recorded” stand apart in the source; their conditions may differ. Structures can show the parent of a compound that is named as a salt.

Key:
Format in all cases: cell-based, human
[1] = system: cultured HCECs; assay: Centrifugation cell attachment assay: coated Descemet's membrane components and cell suspension vehicles; settings: for minimum concentration necessary for the observed cell binding: coating concentration; for binding / distribution of cultured HCECs in coated wells: U-bottomed 96-well plates coated with the component, 200×g for 2 minutes, Opti-MEM
Procedure: Cell attachment to laminins, […], proteoglycans and glycoprotein was tested by the centrifugation cell attachment assay described previously (Friedlander et al., 1998. J. Cell Biol. 107: p 2329) with some modifications. Laminin-521, -511, -411, and -332 were purchased from Veritas (Tokyo, Japan). Perlecan, Agrin, Nidogen-1, TSP-1 and Fibulin 5 were purchased from R&D Systems (Minneapolis, Minn.). Type IV collagen was purchased from BD Biosciences (San Jose, Calif., USA).
Each well of a U-shaped 96-well Maxisorp plate (Nunc) was coated with 40 .micro.l of laminin, collagen, proteoglycan or glycoprotein solution overnight at 4 degrees Celsius. The wells were washed three times with PBS (−) and blocked with 1% BSA in 0.1 M NaHCO3 (pH 8.0) for 1 hour at room temperature. The cultured HCECs were suspended in Opti-MEM, Opeguard-MA (Senju Pharmaceutical, Osaka, Japan) or BSS-Plus (Alcon Laboratories, Fort Worth, Tex., USA) at a concentration of 1×10^5 cells/mL, and 0.1 mL of the cell suspension was added to each well and incubated for 10 minutes. The plate was then centrifuged at 200×g for 2 minutes. The bright-field Z stack images were captured by a BZ-9000 microscope (Keyence, Osaka, Japan) at 2× objective magnification and omnifocal images were created from these images using BZ-II Analyzer software. In accordance with the description by Friedlander et al (Friedlander et al., 1998. J. Cell Biol. 107: p 2329), the cells were centrifuged into a pellet at the bottom of the well on non-adhesive substrates. As the adhesiveness of the substrate increased, more cells bound to the substrates along the wall of the well. Bond to the substrate is detected in a circular area with a measurable diameter at the bottom or the well. On strongly adhesive substrates, cells were distributed more or less uniformly on the well (Grumet M, Flaccus A, and Margolis R U. J. Cell Biol. 1993; 120:815-824).
As a method for assessing the attachment ability of HCECs, this Example performed a centrifugation cell attachment assay [Friedlander et al., 1998. J. Cell Biol. 107: p 2329] with some modification (FIG. 36). The cultured HCECs were detached from culture dishes as described in (Materials and Methods) and cell suspension was prepared at a concentration of 1×10^5 cells/ml. 100 .micro.l of the cell suspension was added to each well of the U-bottomed 96-well plates coated with laminin-511, laminin-411, Type IV collagen or other components of Descemet's membrane listed in Table 6. The plate was incubated for 10 minutes at room temperature and then centrifuged at 200×g for 2 minutes. The attached cells were assessed under a BZ-9000 microscope system as described in (Materials and Methods).

[2] = system: cHCECs; assay: Phase contrast microscopy: morphology, cell area distribution, cultured cell density
Description: Phase contrast microscope images were taken by an inverted microscope system (CKX41, Olympus, Tokyo, Japan). For the cell area distribution analysis, the cHCECs were washed with PBS (−) three times and the phase contrast images were acquired by a BZ X-700 Microscope system (Keyence, Osaka, Japan). The cell area distributions were quantified by BZ-H3C Hybrid cell count software (Keyence).
Phase contrast images ware taken by an inverted microscope system (CKX41, Olympus, Tokyo, Japan). For the cell area distribution analysis, the cHCECs were washed with PBS (−) three times and phase contrast images were acquired by a BZ X700 Microscope system (Keyence, Osaka, Japan). The area distributions were quantified by BZ-H3C Hybrid cell count software (Keyence).

[3] = system: cultured HCECs; assay: Flow cytometry (FACS) of surface CD markers CD44, CD166, CD24, CD26, CD105 of cultured HCECs; E-ratio; settings: for effect on the E-ratio: presence of the agent during culture
Description: FIG. 68 is a diagram showing the method to estimate the content of effector (E-ratio) in a cultured cell population by FACS analysis. The gate is set as followings in measurements using PE-Cy7-labeled anti-human CD44 antibodies (BD Biosciences) and setting the Area Scaling Factor of Blue laser of FACS Canto II to 0.75 and voltage of PE-Cy7 to 495. First, fractions A, B, C, and D are set in the dot plot (top row left) where the X axis is CD24 and the Y axis is CD166. At this time, fraction A is CD24 negative and CD166 positive, fraction B is CD24 positive and CD166 positive, fraction C is CD24 negative and CD166 negative, and fraction D is CD24 positive and CD166 negative. The proportion of fraction B when target cells for analysis are 100% is considered the content of non-intended cell C [CD24 positive cell]. […] Further, a separate dot plot where the X axis is CD44 and the Y axis is CD26 is created and fractions a′, b′, c′, and d′ are set as in the diagram on the top row right side. The proportion of fraction B when the target cells of analysis is 100% is the non-intended cell B [CD26 positive cell] content.
Method of calculating the E-ratio: Typically, fluorescence intensities differ depending on the type of fluorescence of a label or equipment setting. In a measurement under the following condition: PE-Cy7-labeled anti-human CD44 antibody (BD Biosciences) is used and Area Scaling Factor of Blue laser of FACS Canto II is set to 0.75 and the voltage of PE-Cy 7 is set to 495, gates are set as follows: First, fractions A, B, C, and D are set in a dot plot (FIG. 68, top row left side) with X axis as CD24 and Y axis as CD166. At this time, fraction A is CD24 negative and CD166 positive, fraction B is CD24 positive and CD166 positive, fraction C is CD24 negative and CD166 negative, and fraction D is CD24 positive and CD166 negative. The proportion of fraction B, when target cells for analysis is 100%, is considered the content of non-intended cell C [CD24 positive cell]. […] Further, a separate dot plot where the X axis is CD44 and the Y axis is CD26 is created and fractions a′, b′, c′, and d′ are set as in the diagram on the top row right side of FIG. 68. The proportion of fraction B, when the target cell of analysis is 100%, is the non-intended cell B [CD26 positive cell] content (see FIG. 68).
HCECs were collected from the culture dish by TrypLE Select treatment as described above and suspended at a concentration of 4×10^6 cells/mL in FACS buffer (PBS containing 1% BSA and 0.05% NaN3). An equal volume of antibody solution was added and incubated for 2 hours at 4.degrees. C. The antibody solutions comprised the following: FITC-conjugated anti-human CD26 mAb, PE-conjugated anti-human CD166 mAb, PerCP-Cy5.5 conjugated anti-human CD24 mAb, PE-Cy7-conjugated anti-human CD44 (all from BD Biosciences), and APC-conjugated anti-human CD105 (eBioscience, San Diego, Calif., USA). After washing with FACS buffer, the HCECs were analyzed with FACS Canto II (BD Biosciences).

[4] = system: HCECs; assay: Trichostatin A (TSA) treatment of HCECs; settings: medium supplemented with 0.5 .micro.M Trichostatin A
Procedure: HCECs with treated with Trichostatin A as follows. The Descemet's membranes with the corneal endothelial cells were stripped from donor corneas and digested at 37.degrees. C. with 1 mg/mL collagenase A (Roche Applied Science, Penzberg, Germany) for 2 hours. The HCECs obtained from a single donor cornea were seeded in one well of a Type I collagen-coated 6-well cell culture plate (Corning Inc., Corning, N.Y., USA). The Trichostatin A-containing medium was prepared with Opti-MEM-I (Life Technologies Corp., Carlsbad, Calif., USA), 8% fetal bovine serum (FBS), 5 ng/mL epidermal growth factor (EGF; Life Technologies), 20 .micro.g/mL ascorbic acid (Sigma-Aldrich Corp.), 200 mg/L calcium chloride (Sigma-Aldrich Corp., St. Louis, Mo., USA), 0.08% chondroitin sulfate (Wako Pure Chemical Industries, Ltd., Osaka, Japan), 50 .micro.g/mL of gentamicin, and 0.5 .micro.M of Trichostatin A. The HCECs were cultured using the Trichostatin A-containing medium at 37.degrees. C. in a humidified atmosphere containing 5% CO2. The culture medium was changed twice a week. The HCECs were subcultured at ratios of 1:3 using 10× TrypLE Select (Life Technologies) for 12 minutes at 37.degrees. C. when they reached confluence. The cells were cultured for 30 days. The HCECs from the second passage were used for observation with a fluorescence microscope.

[5] = addition of Y-27632 during the culture for 47 days

Perlecan: purchased from R&D Systems, Descemet's membrane component
minimum concentration necessary for the observed cell binding [1]: 400 nM

laminin-411: laminin purchased from Veritas, coating protein
binding / distribution of cultured HCECs in coated wells [1]: formed a circular pellet | minimum concentration necessary for the observed cell binding [1]: 1.25 nM and 2.85 .micro.g/mL

C[S+]([O-])c1ccc(-c2nc(-c3ccc(F)cc3)c(-c3ccncc3)[nH]2)cc1 (centres unmarked) [SB203580, 4-(4-fluorophenyl)-2-(4-methylsulfinylphenyl)-5-(4-pyridyl)-1H-imidazole]
senescent form of cHCEC cultures ([2]; inhibitor added to the entire culture, cultures a5, a1, a2): did not have any senescent form at first glance

TSP-1: purchased from R&D Systems, Descemet's membrane component
minimum concentration necessary for the observed cell binding [1]: 400 nM

laminin-332: laminin purchased from Veritas, coating protein
binding / distribution of cultured HCECs in coated wells [1]: formed a circular pellet

laminin-521: laminin purchased from Veritas, coating protein
binding / distribution of cultured HCECs in coated wells [1]: uniformly distributed; also recorded: concentration dependent manner

C[C@@H](N)[C@H]1CC[C@H](C(=O)Nc2ccncc2)CC1 [Lot Y-27632, (R)-(+)-trans-(4-pyridyl)-4-(1-aminoethyl)-cyclohexanecarboxamide dihydrochloride monohydrate]
E-ratios ([3]; Y-27632 added every three days throughout the entire culture period, TGF-beta signaling not inhibited, seeding density higher than 400 cells/mm^2): ≥ 90% | improvement (E-ratio, increase in the proportion of intermediately differentiated corneal endothelial cells) ([3]; about 1 .micro.M): very little improvement | improvement (E-ratio, increase in the proportion of intermediately differentiated corneal endothelial cells) ([3]; about 5 .micro.M): little | improvement (E-ratio, increase in the proportion of intermediately differentiated corneal endothelial cells) ([3]; about 10 .micro.M or more): More of an effect | E-Ratio ([3]; addition of Y-27632 throughout 35 days of culture, 6th passage): 52.3% | effect on the E-ratio [3]: further improved the E-ratio | average cell area [2, 5]: 216 .micro.m^2 | cultured cell density [2, 5]: 2582 cells/mm^2

laminin-511: laminin purchased from Veritas, coating protein
binding / distribution of cultured HCECs in coated wells [1]: uniformly distributed; also recorded: concentration dependent manner | minimum concentration necessary for the observed cell binding [1]: 4 pM and 3 ng/mL

Agrin: purchased from R&D Systems, Descemet's membrane component
minimum concentration necessary for the observed cell binding [1]: 400 nM

CC(/C=C/C(=O)NO)=C\[C@@H](C)C(=O)c1ccc(N(C)C)cc1 [Trichostatin A]
effect on the E-ratio [3]: improved the E-ratio | differentiation into mature cHCECs [4]: can be promoted to differentiate into mature cHCECs
